“Also recorded” adds a separate entry of the source. Where no end group is shown, it is not given here. The star is where a group is joined. FITC = O=C1OC2(c3ccc(O)cc3Oc3cc(O)ccc32)c2ccc(NC(=S)*)cc21; Ahx = NCCCCCC(=O)O
How the values were obtained:
CLTH/EGFRvIII cells [1] = assay: Flow cytometry cellular binding of FITC-Ahx-peptides, EGFRvIII cells; assay type: cell-based, human; conditions: for Normalized MFI at 10 µM, vIII: EGFRvIII cells, 10 µM FITC-Ahx-peptide, 0.2% DMSO, MFI minus blank cells divided by spectrofluorometer correction factor; for Normalized MFI ratio vIII/WT from 3 different concentrations, Mean: EGFRvIII over EGFR WT cell line, mean of ratios at 1, 5 and 10 µM
Source text: Since FITC fluorescence can be impacted by the nature of the amino acids in the peptide sequence and since the conjugation rate of FITC in the peptide synthesis can fluctuate, it was needed to measure a correction factor according to the fluorescence intensity of each peptide. As flow cytometry cannot analyze fluorescence of small molecules, a spectrofluorometer was used in similar conditions (excitation and emission) to the flow cytometry conditions. […] Fluorescence intensities at 525 nm of the FITC-Ahx-peptides in PBS were measured using a Varioskan plate reader (Thermo Scientific) and the SkanIt Software 5.0. Samples with concentrations between at 0.625, 1.25, 2.5, 5, 10 and 20 µM were prepared in triplicates using stock solutions of peptides in DMSO at 5 mM. Samples (100 µL) were analyzed in a 96-well plate using the following conditions: temperature of 25 °C, excitation wavelength at 490 nm, excitation bandwidth of 5 nm, emission wavelength at 525 nm, by step of 1 nm, measurement time 100 ms, and upper lens. Linear regressions were determined for each peptide. The correction factor was determined by dividing each slope by the arbitrary value 100 and was used to normalize the MFI obtained by flow cytometry.

CLTH/EGFR WT cells [2] = assay: Flow cytometry cellular binding of FITC-Ahx-peptides, EGFR WT cells; assay type: cell-based, human; conditions: 10 µM FITC-Ahx-peptide, 20 min at RT, 0.2% DMSO, MFI minus blank cells divided by spectrofluorometer correction factor
Protocol: (§1) Flow cytometry analysis was also performed to quantitatively analyze the binding affinity of the synthetized peptides to the different cell types. Briefly, 293T, CLTH/EGFR WT and CLTH/EGFRvIII cells (100,000 cells, 500 µL) were plated in 24-well plates and incubated overnight at 37 °C in a humidified atmosphere containing 5% CO2 overnight. The next day, cells were treated with FITC-Ahx-peptides using a stock solution in pure DMSO at 5 mM to reach a final concentration of 1, 5 or 10 µM (final percentage of DMSO of 0.2%). Plates were incubated for 20 min at RT. Cells were detached from the plates by a PBS wash, transferred to FACS tubes and washed two times with 4 mL of PBS. Cells were stained with LIVE/DEAD™ Fixable Near-IR Dead Cell Stain Kit (Thermofisher) as a viability marker. Cells were analyzed by flow cytometry on a MACSQuant Analyser 16 (Miltenyi Biotec) using the MACS Quantify software to acquire and process the data. LIVE/DEAD™ Fixable dye was excited at 640 nm and fluorescence was collected with the 785/62 nm filter. FITC was excited at 488 nm and fluorescence was collected with the 525/50 nm filter. Viable cells were gated, FITC fluorescence intensity was recorded and the mean fluorescence intensity (MFI) was measured. MFI values were then normalized by subtracting MFI from blank cells and dividing by the correction factor determined using a spectrofluorometer.
Since FITC fluorescence can be impacted by the nature of the amino acids in the peptide sequence and since the conjugation rate of FITC in the peptide synthesis can fluctuate, it was needed to measure a correction factor according to the fluorescence intensity of each peptide. As flow cytometry cannot analyze fluorescence of small molecules, a spectrofluorometer was used in similar conditions (excitation and emission) to the flow cytometry conditions. […] Fluorescence intensities at 525 nm of the FITC-Ahx-peptides in PBS were measured using a Varioskan plate reader (Thermo Scientific) and the SkanIt Software 5.0. […] Linear regressions were determined for each peptide. […]

293T cells [3] = assay: Flow cytometry cellular binding of FITC-Ahx-peptides, 293T cells; assay type: cell-based, human; conditions: 20 min at RT; for Normalized MFI at 10 µM, 293T: 293T cells (negative control), 10 µM FITC-Ahx-peptide, 0.2% DMSO, MFI minus blank cells divided by spectrofluorometer correction factor
Protocol: as §1
Since FITC fluorescence can be impacted by the nature of the amino acids in the peptide sequence and since the conjugation rate of FITC in the peptide synthesis can fluctuate, it was needed to measure a correction factor according to the fluorescence intensity of each peptide. As flow cytometry cannot analyze fluorescence of small molecules, a spectrofluorometer was used in similar conditions (excitation and emission) to the flow cytometry conditions. Experiments were performed by the flow cytometry core facility at Institut Mondor de Recherche Biomédical (IMRB U955, France). Fluorescence intensities at 525 nm of the FITC-Ahx-peptides in PBS were measured using a Varioskan plate reader (Thermo Scientific) and the SkanIt Software 5.0. Samples with concentrations between at 0.625, 1.25, 2.5, 5, 10 and 20 µM were prepared in triplicates using stock solutions of peptides in DMSO at 5 mM. Samples (100 µL) were analyzed in a 96-well plate using the following conditions: temperature of 25 °C, excitation wavelength at 490 nm, excitation bandwidth of 5 nm, emission wavelength at 525 nm, by step of 1 nm, measurement time 100 ms, and upper lens. Linear regressions were determined for each peptide. The correction factor was determined by dividing each slope by the arbitrary value 100 and was used to normalize the MFI obtained by flow cytometry.

293T cells [4] = assay: Flow cytometry binding of phage-displayed peptides, 293T cells; assay type: cell-based, human; conditions: phage-displayed peptide (M13), 1 h at 4 °C
Protocol: (§2) Prior to being tested with the selected phages or peptides, each cell line was incubated with different commercial antibodies to confirm their phenotype (Fig. S3). A monoclonal anti-EGFR WT antibody (Life Technologies) and an anti-EGFRvIII primary antibody (Millipore) were used in flow cytometry experiments to evaluate the expression of EGFR WT and EGFRvIII receptors on CLTH/EGFR WT cells and CLTH/EGFRvIII cells respectively. Anti-IgG1 conjugated to phycoerythrin (PE) (Miltenyi Biotec) was used as a secondary antibody to read the fluorescence of PE. 293T cells were tested as a negative control. A phage-free control experiment was also performed on each cell type prior to testing phages. […]
(§3) Binding of the selected phages on 293T human embryo kidney, CLTH/EGFR WT and CLTH/EGFRvIII cells was characterized by flow cytometry. […] Cells were analyzed by flow cytometry on a MACSQuant Analyser 16 (Miltenyi Biotec) using the MACS Quantify software to acquire and process the data. Viobility™ 405/520 fixable dye was excited at 405 nm and fluorescence was collected with the 525/50 nm filter. PE was excited at 488 nm and fluorescence was collected with the 579/34 nm filter. Viable cells were gated, and PE fluorescence intensity was recorded.

CLTH/EGFRvIII cells [5] = assay: Flow cytometry binding of phage-displayed peptides, EGFRvIII cells; assay type: cell-based, human; conditions: phage-displayed peptide (M13), ~10^10 phages pre-absorbed on 293T cells, 1 h at 4 °C; anti-M13_biotin + anti-biotin_PE vs secondary-only
Protocol: Prior to being tested with the selected phages or peptides, each cell line was incubated with different commercial antibodies to confirm their phenotype (Fig. S3). A monoclonal anti-EGFR WT antibody (Life Technologies) and an anti-EGFRvIII primary antibody (Millipore) were used in flow cytometry experiments to evaluate the expression of EGFR WT and EGFRvIII receptors on CLTH/EGFR WT cells and CLTH/EGFRvIII cells respectively. Anti-IgG1 conjugated to phycoerythrin (PE) (Miltenyi Biotec) was used as a secondary antibody to read the fluorescence of PE. 293T cells were tested as a negative control. A phage-free control experiment was also performed on each cell type prior to testing phages. Anti-M13 conjugated to biotin (Abcam) was used as a primary antibody, anti-mouse IgG3 kappa monoclonal conjugated to biotin (Abcam) as isotype control and anti-biotin conjugated to PE (Miltenyi Biotec) as secondary antibody. A list of the antibodies is available in Table S3.
Binding of the selected phages on 293T human embryo kidney, CLTH/EGFR WT and CLTH/EGFRvIII cells was characterized by flow cytometry. Approximately 1 × 10^6 293T cells (expressing endogenous levels of EGFR WT) were collected, washed with cold PBS and blocked with 2%w/v milk-PBS (MPBS), rotating for 30 min at 4 °C. […] The blocked phages were then added to the blocked cells and incubated rotating for 1 h at 4 °C. After centrifugation at 500g for 3 min, the supernatant containing non-bound phages was collected. This step allowed the removal of phages that interacted with this EGFR negative cell line (i.e. not an EGFR-specific binding). The supernatant was then used to resuspend transfected cells washed beforehand (CLTH/EGFR WT expressing EGFR WT and CLTH/EGFRvIII expressing EGFRvIII). Treated cells were incubated for 1 h at 4 °C, collected by centrifugation and washed two times with PBS at pH 7.4. Cells were stained with Viobility™ 405/520 fixable dye (Miltenyi Biotec) as a viability marker. Cells were analyzed by flow cytometry on a MACSQuant Analyser 16 (Miltenyi Biotec) using the MACS Quantify software to acquire and process the data. Viobility™ 405/520 fixable dye was excited at 405 nm and fluorescence was collected with the 525/50 nm filter. PE was excited at 488 nm and fluorescence was collected with the 579/34 nm filter. Viable cells were gated, and PE fluorescence intensity was recorded.

CLTH/EGFR WT cells [6] = assay: Flow cytometry binding of phage-displayed peptides, EGFR WT cells; assay type: cell-based, human; conditions: phage-displayed peptide (M13), 1 h at 4 °C
Protocol: as §2, §3

EGFRvIII = target: T1, EGFRvIII (Homo sapiens, UniProt P00533, DELINS30-297G); assay: Microscale thermophoresis, EGFRvIII in solution; assay type: binding; conditions: read-out: Kd for EGFRvIII (MST, estimated)
T1 construct: using purified and active extracellular domain of the EGFRvIII protein; purchased Sino Biological 29662-H08B

EGFR WT = conditions: prior art; cited from earlier work
Source text: Two short peptides intended for EGFR targeting of tumor cells have been described in the prior art.

[7] = target: epidermal growth factor tyrosine kinase receptor mutation variant III (EGFRvIII) on CLTH/EGFRvIII cells (human) (UniProt P00533); assay: flow cytometry on cells; FITC-Ahx-peptides at 1, 5 or 10 µM (0.2% DMSO) on plated 293T, CLTH/EGFR WT and CLTH/EGFRvIII cells, 20 min at RT; FITC MFI of viable cells, normalised by blank cells and a spectrofluorometer correction factor

{FITC-Ahx}-YHWYGYTPENVI-NH2 (SMILES CC[C@H](C)[C@H](NC(=O)[C@@H](NC(=O)[C@H](CC(N)=O)NC(=O)[C@H](CCC(=O)O)NC(=O)[C@@H]1CCCN1C(=O)[C@@H](NC(=O)[C@H](Cc1ccc(O)cc1)NC(=O)CNC(=O)[C@H](Cc1ccc(O)cc1)NC(=O)[C@H](Cc1c[nH]c2ccccc12)NC(=O)[C@H](Cc1c[nH]cn1)NC(=O)[C@H](Cc1ccc(O)cc1)NC(=O)CCCCCNC(=S)Nc1ccc2c(c1)C(=O)OC21c2ccc(O)cc2Oc2cc(O)ccc21)[C@@H](C)O)C(C)C)C(N)=O) [reference compound]
Normalized MFI at 10 µM, vIII (CLTH/EGFRvIII cells [1]; 20 min at RT): 9.7 | Normalized MFI ratio vIII/WT from 3 different concentrations, Mean (CLTH/EGFRvIII cells [1]): 1.80 | Normalized MFI at 10 µM, WT (CLTH/EGFR WT cells [2]): 4.5 | Normalized MFI at 10 µM, 293T (293T cells [3]): 7.6

VLGREEWSTSYW-M13
difference in fluorescence intensity, anti-M13 vs secondary-only antibody, 293T cells (293T cells [4]): no significant difference in these fluorescence intensities | specific binding of phage-displayed peptide to EGFRvIII cells (PE fluorescence) (CLTH/EGFRvIII cells [5]): showed a specific binding to EGFRvIII | difference in fluorescence intensity, anti-M13 vs secondary-only antibody, EGFR WT cells (CLTH/EGFR WT cells [6]): no significant difference in these fluorescence intensities

{FITC-Ahx}-FALGEA-NH2 (SMILES CC(C)C[C@H](NC(=O)[C@H](C)NC(=O)[C@H](Cc1ccccc1)NC(=O)CCCCCNC(=S)Nc1ccc2c(c1)C(=O)OC21c2ccc(O)cc2Oc2cc(O)ccc21)C(=O)NCC(=O)N[C@@H](CCC(=O)O)C(=O)N[C@@H](C)C(N)=O) [FALGEA control peptide with FITC-Ahx tag at the N-terminus, reference compound]
Normalized MFI at 10 µM, vIII (CLTH/EGFRvIII cells [1]; 20 min at RT): 1.8 | Normalized MFI ratio vIII/WT from 3 different concentrations, Mean (CLTH/EGFRvIII cells [1]): 2.50 | Normalized MFI at 10 µM, WT (CLTH/EGFR WT cells [2]): 0.7 | Normalized MFI at 10 µM, 293T (293T cells [3]): 0.9

FITC-Ahx-VLGREEWSTSYW-CONH2
Normalized MFI at 10 µM, WT (CLTH/EGFR WT cells [2]): 4.0 | Normalized MFI at 10 µM, 293T (293T cells [3]): 5.1

FALGEA-NH2 [FALGEA]
Kd (EGFRvIII): 3.7 µM

VLGREEWSTSYW [novel 12-mer peptide ligand of EGFRvIII selected by phage display]
cellular binding to EGFRvIII cells, qualitative (CLTH/EGFRvIII cells [1]; FITC-Ahx-peptide, 20 min at RT, flow cytometry): A shift of fluorescence was observed for the VLGREEWSTSYW peptide on EGFRvIII compared to 293T and EGFR WT cell lines; also recorded: much higher for VLGREEWSTSYW compared to the FALGEA control; also recorded: binds to EGFRvIII cells with high efficiency; also recorded: greater affinity in cell surface binding experiments; also recorded: weaker signal with the free C-terminal FITC labeled peptide compared to the phage displayed format of the same peptide | specificity for EGFRvIII cells versus EGFR WT cells, qualitative (CLTH/EGFRvIII cells [1]; FITC-Ahx-peptide, flow cytometry, MFI ratio vIII/WT at 1, 5, 10 µM): shows the specificity to EGFRvIII versus EGFR WT for VLGREEWSTSYW compared to the control peptide YHWYGYTPENVI; also recorded: good specificity compared to EGFR WT cells; also recorded: better selectivity to EGFRvIII cells than to EGFR WT cells compared to FALGEA | specific binding of phage-displayed peptide to EGFRvIII cells (PE fluorescence) (CLTH/EGFRvIII cells [5]): appeared to show specific binding to the EGFRvIII cells compared to the EGFR WT and the parental cell | non-specific interactions (293T cell binding), qualitative (293T cells [3]; FITC-Ahx-peptide, flow cytometry): minimized for VLGREEWSTSYW compared to the YHWYGYTPENVI control; also recorded: less nonspecific interaction (293T cells); also recorded: significantly less nonspecific cellular binding

NPIVRSAEDGQL [top peptide selected from the NGS data analysis]
specific binding of phage-displayed peptide to EGFRvIII cells (PE fluorescence) (CLTH/EGFRvIII cells [5]): did not show a specific binding

YHWYGYTPENVI
reported binding to EGFR WT, qualitative (YHWYGYTPENVI) (EGFR WT): proven to bind to EGFR WT

NESGITRIALQD [top peptide selected from the NGS data analysis]
specific binding of phage-displayed peptide to EGFRvIII cells (PE fluorescence) (CLTH/EGFRvIII cells [5]): did not show a specific binding

B1: FITC-Ahx-FALGEA-CONH2 (peptide)
peptide: {FITC-Ahx}-FALGEA-NH2
SMILES: CC(C)C[C@H](NC(=O)[C@H](C)NC(=O)[C@H](Cc1ccccc1)NC(=O)CCCCCNC(=S)Nc1ccc2c(c1)C(=O)OC21c2ccc(O)cc2Oc2cc(O)ccc21)C(=O)NCC(=O)N[C@@H](CCC(=O)O)C(=O)N[C@@H](C)C(N)=O
normalized MFI at 10 µM [7]: 1.8 | normalized MFI ratio vIII/WT from 3 different concentrations (mean) [7]: 2.5
